The values that follow come from patent publication US20100184638A1, “Galanin Receptors and Brain Injury” (NeuroTargets, Ltd., priority 2004, published 2010).

Non-standard residues stand in square brackets, D forms with d. Residues, ends and D or L forms follow the SMILES beside them. *: point of attachment. Fmoc = O=C(OCC1c2ccccc2-c2ccccc21)*; Cha = N[C@@H](CC1CCCCC1)C(=O)O; AMC = Cc1cc(=O)oc2cc(N*)ccc12

Assay [1] relates to organotypic hippocampal cultures. Description: Staurosporine-induced cell death in organotypic hippocampal cultures (propidium iodide). The class given is cell-based, mouse. As to conditions: for percentage cell death: n=4. As for the experimental part: Organotypic cultures were prepared as previously described (Elliott-Hunt et al. (2002) J. Neurochem. 80 416-425; Stoppini et al. (1991) J. Neurosci. Methods 37 173-182). Briefly, the hippocampi from 5-6 day old pups were rapidly removed under a dissection microscope and sectioned transversely at 400 μm using a McIlwain tissue chopper (Mickle Laboratory Engineering Co. Ltd., Gomshall, UK). The slices were cultured in 95% air and 5% CO2 at 37° C. on a microporous transmembrane biopore membrane (Millipore, Poole, UK), in a 6-well plate, in 50% minimal essential medium with Earle's Salts (Gibco BRL, Paisley, UK) without L-glutamine, […] Hanks Balanced Salt Solution (Gibco BRL), 25% Horse Serum (heat inactivated; Harlan Serum Labs, Loughborough, UK), 5 mg/ml glucose (Sigma Chemical Co., Poole, UK) and […] glutamine (Sigma).
Fourteen day organotypic hippocampal cultures were placed in 0.1% BSA with serum free media for 16 hours before incubation with varying concentrations of glutamic acid for 3 hours or staurosporine for 9 hours. Staurosporine and glutamate are both known to cause excitotoxic damage to such cell cultures (Prehn et al. (1997) J. Neurochem. 68 1679-1685; Ohmori et al. (1996) Brain Res. 743 109-115). Cultures were washed with serum-free medium and incubated for a further 24 hours before imaging. Regional patterns of neuronal injury in the organotypic cultures were observed by performing experiments in the presence of propidium iodide. After membrane injury, the dye enters cells, binds to nucleic acids and accumulates, rendering the cell brightly fluorescent (Vornov et al. (1994) Stroke 25 457-465). […] Neuronal damage in the area encompassing the CA1 region was assessed using the density slice function in NIH Image software (Scion Image, MD, USA) to establish signal above background. The area of the subfields expressing the exclusion dye propidium iodide was measured, and expressed as a percentage of the total area of the subfields as assessed in the bright field image. Furthermore, for consistency in setting the parameters accurately when using the density slice function, the threshold was set against a positive control set of cultures exposed to 10 mM glutamate.
(SEQ ID NO: 1) (AstraZeneca, Montreal, Quebec, Canada), amyloid-β (1-42) (Aβ (1-42)) and the reverse Aβ (42-1) peptide (American Peptide Company, Sunnyvale, Calif. 93906). Before use in the experiments below, the Aβ (1-42) was induced to form fibrils by pre-incubation in culture medium. Specifically, 0.45 mg of Aβ peptide was dissolved in 20 μl of dimethyl sulfoxide (DMSO-Sigma) and diluted to a 100-μM stock solution in medium, which was then incubated with gentle shaking at room temperature for 24 hours.
To further dissect the neuroprotective role played by galanin in a more tractable in vitro system, both primary dispersed and organotypic hippocampal cultures (Elliott-Hunt, 2002) were used. These two techniques are complimentary since the dispersed hippocampal cultures ensure that observed effects are neuron-specific, whilst the organotypic cultures preserve the synaptic and anatomical organisation of the neuronal circuitry (Elliott-Hunt, 2002) as well as retaining many of the functional characteristics found in vivo (Adamschik et al. (2000) Brain Res. Prot. 5 153-158). The effects of staurosporine and glutamate on neuronal cell death in hippocampal cultures (Prehn, 1997; Ohmori, 1996) were studied. Cell death was visualised by propidium iodide staining. Results are expressed as a percentage of the area expressing fluorescence as compared with the untreated “control” cultures.

Assay [2] concerns GALR2. The conditions noted are these: cited from earlier work.
The subject of assay [3] is GALR1 and GALR2. As to conditions: cited from earlier work.
Assay [4] deals with organotypic hippocampal cultures. Description: Glutamate-induced cell death in organotypic hippocampal cultures (propidium iodide). The class given is cell-based, mouse. The conditions noted are these: 4 mM glutamate, 9 hour exposure, n=4. As for the experimental part:
Organotypic cultures were prepared as previously described (Elliott-Hunt et al. (2002) J. Neurochem. 80 416-425; Stoppini et al. (1991) J. Neurosci. Methods 37 173-182). Briefly, the hippocampi from 5-6 day old pups were rapidly removed under a dissection microscope and sectioned transversely at 400 μm using a McIlwain tissue chopper (Mickle Laboratory Engineering Co. Ltd., Gomshall, UK). […]
Staurosporine and glutamate are both known to cause excitotoxic damage to such cell cultures (Prehn et al. (1997) J. Neurochem. 68 1679-1685; Ohmori et al. (1996) Brain Res. 743 109-115). […] Neuronal damage in the area encompassing the CA1 region was assessed using the density slice function in NIH Image software (Scion Image, MD, USA) to establish signal above background. The area of the subfields expressing the exclusion dye propidium iodide was measured, and expressed as a percentage of the total area of the subfields as assessed in the bright field image. […]
To further dissect the neuroprotective role played by galanin in a more tractable in vitro system, both primary dispersed and organotypic hippocampal cultures (Elliott-Hunt, 2002) were used. […] Results are expressed as a percentage of the area expressing fluorescence as compared with the untreated “control” cultures.

Regarding `CN[C@@H]1C[C@H]2O[C@@](C)([C@@H]1OC)n1c3ccccc3c3c4c(c5c6ccccc6n2c5c31)C(=O)NC4` [Staurosporine, staurosporine], the percentage cell death in assay [1] (100 nM staurosporine, galanin knockout organotypic cultures) turned out to be 65±10%; in assay [1] (100 nM staurosporine, wild-type organotypic cultures), 40±26%; in assay [1] (1 μM staurosporine, galanin knockout organotypic cultures), 68±0.5%; in assay [1] (1 μM staurosporine, wild-type organotypic cultures) it was 38±8%.

As to WTLNSAGYLL [AR-M1896], the cell death result in assay [1] (100 nM AR-M1896 co-administered with 100 nM staurosporine, wild-type organotypic cultures, p<0.05) is “significantly reduced the amount of cell death”. The “reduction of staurosporine-induced cell death” value in assay [1] (galanin knockout organotypic cultures versus wild-type cultures (data not shown)) is “as effective”. Besides, the “effect in the absence of staurosporine” value in assay [1] (organotypic or primary cultures, no staurosporine) is “No significant effects”. The “binding specificity for GALR2 compared to GALR1” value in assay [2] was 500 fold.

With `Cc1cc(=O)oc2cc(NC(=O)[C@H](CCCCN)NC(=O)[C@H](CC3CCCCC3)NC(=O)OCC3c4ccccc4-c4ccccc43)ccc12` [Galnon] (Fmoc-[Cha]-Lys-{AMC}), in assay [3], the “activation of other GPCR receptors including the neurotensin receptor” value is listed as “also activates a number of other GPCR receptors”; the “agonistic activity at GALR1 and GALR2” value is “equally activates and has agonistic activity to both GALR1 and GALR2”.

`N[C@@H](CCC(=O)O)C(=O)O` [glutamate, L-glutamic acid]: the figures for the percentage cell death in assay [4] (galanin knockout organotypic cultures) and in assay [4] (wild-type organotypic cultures) were 85±8.6% and 61±9.3%, respectively.
